Test results: patent publication US5998654A, “Retinoic acid receptor antagonist compounds and methods” (Ligand Pharmaceuticals Incorporated, priority 1997, dated 1999)

Legend:
RARβ = target: T1, RARβ (Homo sapiens, UniProt P10826); assay: RAR binding, RARβ; settings: Kd from IC50 by Cheng-Prussof equation
T1 sequence (P10826 1-448 isoform P10826-2): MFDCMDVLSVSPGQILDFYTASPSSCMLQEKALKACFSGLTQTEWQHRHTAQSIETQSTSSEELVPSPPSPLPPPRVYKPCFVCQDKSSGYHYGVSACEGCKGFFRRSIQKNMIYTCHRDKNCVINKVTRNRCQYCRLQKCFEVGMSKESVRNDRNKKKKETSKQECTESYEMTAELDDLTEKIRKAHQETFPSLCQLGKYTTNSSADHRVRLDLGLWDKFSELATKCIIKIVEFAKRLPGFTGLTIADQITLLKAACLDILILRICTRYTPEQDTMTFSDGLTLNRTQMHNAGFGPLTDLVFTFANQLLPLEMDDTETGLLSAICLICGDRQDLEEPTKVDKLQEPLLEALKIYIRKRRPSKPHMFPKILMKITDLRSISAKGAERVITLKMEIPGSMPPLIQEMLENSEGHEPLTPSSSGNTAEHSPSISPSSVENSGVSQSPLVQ
Procedure: (§1) Non-specific binding was defined as that binding remaining in the presence of 500 nM of the appropriate unlabelled compound. At the end of the incubation period, bound from free ligand were separated. The amount of bound tritiated retinoids was determined by liquid scintillation counting of an aliquot (700 μL) of the supernatant fluid or the hydroxylapatite pellet.
(§2) After correcting for non-specific binding, IC50 values were determined. […] The IC50 value was determined graphically from a log-logit plot of the data. The Kd values were determined by application of the Cheng-Prussof equation to the IC50 values, the labeled ligand concentration and the Kd of the labeled ligand.

RARs = assay: co-transfection assay, activity on RARs (overall statement); assay type: cell-based, human; settings: comparison compound
Procedure: Utilizing the "cis-trans" or "co-transfection" assay described by Evans et al., Science, 240:889-95 (May 13, 1988), the disclosure of which is herein incorporated by reference, the RAR antagonist compounds of the present invention were tested and found to have strong, specific activity as antagonists of RARs in the presence of RAR agonists. This assay is described in further detail in U.S. Pat. Nos. 4,981,784 and 5,071,773, the disclosures of which are incorporated herein by reference.
In the co-transfection assay, a cloned cDNA for an IR (e.g., human RARα:, RARβ, RXRγ) under the control of a constitutive promoter (e.g., the SV 40 promoter) is introduced by transfection (a procedure to induce cells to take up foreign genes) into a background cell substantially devoid of endogenous IRs. This introduced gene directs the recipient cells to make the IR protein of interest. A second gene is also introduced (co-transfected) into the same cells in conjunction with the IR gene. […]
The co-transfection assay can detect small molecule agonists or antagonists of target IRs. […] This activity can be conveniently measured, e.g., by increasing luciferase production, which reflects compound-dependent, IR-mediated increases in reporter transcription. […]

RARα = target: T2, RARα (Homo sapiens, UniProt P10276); assay: RAR binding, RARα; settings: Kd from IC50 by Cheng-Prussof equation
T2 sequence (P10276 1-462): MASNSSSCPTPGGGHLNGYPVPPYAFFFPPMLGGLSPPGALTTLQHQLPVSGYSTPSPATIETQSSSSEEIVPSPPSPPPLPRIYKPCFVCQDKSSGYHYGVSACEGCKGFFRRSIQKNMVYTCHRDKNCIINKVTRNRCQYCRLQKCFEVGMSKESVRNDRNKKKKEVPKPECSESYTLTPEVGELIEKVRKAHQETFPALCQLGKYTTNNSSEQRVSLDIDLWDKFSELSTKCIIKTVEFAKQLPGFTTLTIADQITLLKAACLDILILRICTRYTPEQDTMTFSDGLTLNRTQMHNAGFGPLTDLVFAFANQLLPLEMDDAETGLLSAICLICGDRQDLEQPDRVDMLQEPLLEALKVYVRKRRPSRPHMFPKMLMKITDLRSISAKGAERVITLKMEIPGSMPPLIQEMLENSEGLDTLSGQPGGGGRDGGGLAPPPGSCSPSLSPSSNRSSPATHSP
Procedure: as §1, §2

RARγ = target: T3, RARγ (Homo sapiens, UniProt P13631); assay: RAR binding, RARγ; settings: Kd from IC50 by Cheng-Prussof equation
T3 sequence (P13631 1-454): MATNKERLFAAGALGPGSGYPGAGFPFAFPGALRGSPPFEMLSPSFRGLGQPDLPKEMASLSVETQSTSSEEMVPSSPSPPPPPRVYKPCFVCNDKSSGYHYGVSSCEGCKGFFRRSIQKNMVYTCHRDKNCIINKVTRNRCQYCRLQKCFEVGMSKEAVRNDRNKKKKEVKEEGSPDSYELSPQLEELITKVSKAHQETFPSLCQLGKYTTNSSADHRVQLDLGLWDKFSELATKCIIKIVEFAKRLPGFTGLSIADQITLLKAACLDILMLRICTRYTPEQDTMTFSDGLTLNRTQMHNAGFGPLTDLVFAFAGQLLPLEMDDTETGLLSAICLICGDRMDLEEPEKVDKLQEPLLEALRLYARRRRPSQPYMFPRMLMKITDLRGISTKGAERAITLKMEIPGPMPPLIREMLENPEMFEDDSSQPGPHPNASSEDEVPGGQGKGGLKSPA
Procedure: as §1, §2

COc1c(C(C)(C)C)cc(/C(C)=C/C=C/C(C)=C/C(=O)O)cc1C(C)(C)C [A, reference compound]
Kd (RARβ): 0.4 nM
type of activity on RAR (in words) (RARs): displays only activity as an RAR? agonist
Kd (RARα): 1 nM
Kd (RARγ): 0.5 nM
